According to PubChem BioAssay (NCI):
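Cells were grown in 96-well plates and exposed to each compound for 48 hours at five concentrations; endpoints were interpolated linearly between bracketing concentrations, or set to the highest concentration if not reached. TGI is the concentration that stops growth completely.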

What was measured:
Test in all cases: growth of human tumour cells (NCI), 48 h
CCRF-CEM leukemia = system: CCRF-CEM leukemia
MDA-N = system: MDA-N
SNB-19 CNS = system: SNB-19 CNS
SW-620 colon = system: SW-620 colon
NCI-H226 lung = system: NCI-H226 lung
NCI-H23 lung = system: NCI-H23 lung
KM12 colon = system: KM12 colon
HCC-2998 colon = system: HCC-2998 colon
786-0 renal = system: 786-0 renal
UACC-257 melanoma = system: UACC-257 melanoma
OVCAR-8 ovarian = system: OVCAR-8 ovarian
DU-145 prostate = system: DU-145 prostate
MCF7 breast = system: MCF7 breast
SN12C renal = system: SN12C renal
HOP-62 NSCLC = system: HOP-62 NSCLC
SF-295 CNS = system: SF-295 CNS
RXF 393 renal = system: RXF 393 renal
HCT-116 colon = system: HCT-116 colon
K-562 leukemia = system: K-562 leukemia
OVCAR-5 ovarian = system: OVCAR-5 ovarian
HOP-92 NSCLC = system: HOP-92 NSCLC
SF-268 CNS = system: SF-268 CNS
BT-549 breast = system: BT-549 breast
A549 NSCLC = system: A549 NSCLC
HCT-15 colon = system: HCT-15 colon
T-47D breast = system: T-47D breast
A498 renal = system: A498 renal
IGROV1 ovarian = system: IGROV1 ovarian
ACHN renal = system: ACHN renal
NCI-H460 lung = system: NCI-H460 lung
MOLT-4 leukemia = system: MOLT-4 leukemia
SK-MEL-2 melanoma = system: SK-MEL-2 melanoma
U251 CNS = system: U251 CNS
NCI/ADR-RES ovarian = system: NCI/ADR-RES ovarian
CAKI-1 renal = system: CAKI-1 renal
UACC-62 melanoma = system: UACC-62 melanoma
HL-60(TB) leukemia = system: HL-60(TB) leukemia
MDA-MB-435 = system: MDA-MB-435
M14 melanoma = system: M14 melanoma
COLO 205 colon = system: COLO 205 colon
OVCAR-4 ovarian = system: OVCAR-4 ovarian
HS 578T breast = system: HS 578T breast
UO-31 renal = system: UO-31 renal
SK-MEL-5 melanoma = system: SK-MEL-5 melanoma
SK-MEL-28 melanoma = system: SK-MEL-28 melanoma
TK-10 renal = system: TK-10 renal
SK-OV-3 ovarian = system: SK-OV-3 ovarian
SR leukemia = system: SR leukemia
HT29 colon = system: HT29 colon
EKVX NSCLC = system: EKVX NSCLC
MDA-MB-231 breast = system: MDA-MB-231 breast
PC-3 prostate = system: PC-3 prostate
LOX IMVI melanoma = system: LOX IMVI melanoma
MALME-3M melanoma = system: MALME-3M melanoma
OVCAR-3 ovarian = system: OVCAR-3 ovarian
NCI-H522 lung = system: NCI-H522 lung
SNB-75 CNS = system: SNB-75 CNS
RPMI-8226 leukemia = system: RPMI-8226 leukemia
SF-539 CNS = system: SF-539 CNS

SMILES: CNc1ccc2nc(-c3ccc(OC(=O)N(C)C)cc3)cn2c1
- TGI (CCRF-CEM leukemia): 32.3 µM
- TGI (MDA-N): 38 µM
- TGI (SNB-19 CNS): 29.6 µM
- TGI (SW-620 colon): 51.4 µM
- TGI (NCI-H226 lung): 37.4 µM
- TGI (NCI-H23 lung): 40.4 µM
- TGI (KM12 colon): 32.3 µM
- TGI (HCC-2998 colon): 81.2 µM
- TGI (786-0 renal): 27.6 µM
- TGI (UACC-257 melanoma): > 100 µM
- TGI (OVCAR-8 ovarian): 30.3 µM
- TGI (DU-145 prostate): > 100 µM
- TGI (MCF7 breast): 43.6 µM
- TGI (SN12C renal): 27.2 µM
- TGI (HOP-62 NSCLC): 32.9 µM
- TGI (SF-295 CNS): 31.5 µM
- TGI (RXF 393 renal): 26.1 µM
- TGI (HCT-116 colon): 33.5 µM
- TGI (K-562 leukemia): 49.7 µM
- TGI (OVCAR-5 ovarian): 46 µM
- TGI (HOP-92 NSCLC): 50 µM
- TGI (SF-268 CNS): 30 µM
- TGI (BT-549 breast): 31.6 µM
- TGI (A549 NSCLC): 32.4 µM
- TGI (HCT-15 colon): 40.2 µM
- TGI (T-47D breast): 47.2 µM
- TGI (A498 renal): 32.2 µM
- TGI (IGROV1 ovarian): 31.8 µM
- TGI (ACHN renal): 37.3 µM
- TGI (NCI-H460 lung): 34.4 µM
- TGI (MOLT-4 leukemia): 43 µM
- TGI (SK-MEL-2 melanoma): 31.8 µM
- TGI (U251 CNS): 28.8 µM
- TGI (NCI/ADR-RES ovarian): 59.1 µM
- TGI (CAKI-1 renal): 44.7 µM
- TGI (UACC-62 melanoma): 35.1 µM
- TGI (HL-60(TB) leukemia): 62.3 µM
- TGI (MDA-MB-435): 30.7 µM
- TGI (M14 melanoma): 36.9 µM
- TGI (COLO 205 colon): 32.2 µM
- TGI (OVCAR-4 ovarian): 31.6 µM
- TGI (HS 578T breast): > 100 µM
- TGI (UO-31 renal): 35.4 µM
- TGI (SK-MEL-5 melanoma): 57.1 µM
- TGI (SK-MEL-28 melanoma): > 100 µM
- TGI (TK-10 renal): 34.3 µM
- TGI (SK-OV-3 ovarian): 33 µM
- TGI (SR leukemia): 44.1 µM
- TGI (HT29 colon): 34 µM
- TGI (EKVX NSCLC): 33.4 µM
- TGI (MDA-MB-231 breast): 31.5 µM
- TGI (PC-3 prostate): 29.5 µM
- TGI (LOX IMVI melanoma): 31.6 µM
- TGI (MALME-3M melanoma): > 100 µM
- TGI (OVCAR-3 ovarian): > 100 µM
- TGI (NCI-H522 lung): 28.8 µM

SMILES: O=C1c2ccccc2-c2ccc(NC(=O)C3CCCCC3C(=O)O)cc21 (centres undefined)
- TGI (CCRF-CEM leukemia): > 100 µM
- TGI (MDA-N): > 100 µM
- TGI (SNB-19 CNS): > 100 µM
- TGI (SW-620 colon): > 100 µM
- TGI (NCI-H226 lung): > 100 µM
- TGI (NCI-H23 lung): > 100 µM
- TGI (KM12 colon): > 100 µM
- TGI (786-0 renal): > 100 µM
- TGI (UACC-257 melanoma): > 100 µM
- TGI (OVCAR-8 ovarian): > 100 µM
- TGI (DU-145 prostate): > 100 µM
- TGI (MCF7 breast): > 100 µM
- TGI (SN12C renal): > 100 µM
- TGI (HOP-62 NSCLC): > 100 µM
- TGI (SF-295 CNS): > 100 µM
- TGI (RXF 393 renal): > 100 µM
- TGI (SNB-75 CNS): > 100 µM
- TGI (HCT-116 colon): > 100 µM
- TGI (K-562 leukemia): > 100 µM
- TGI (OVCAR-5 ovarian): > 100 µM
- TGI (HOP-92 NSCLC): > 100 µM
- TGI (RPMI-8226 leukemia): > 100 µM
- TGI (SF-268 CNS): > 100 µM
- TGI (BT-549 breast): > 100 µM
- TGI (A549 NSCLC): > 100 µM
- TGI (HCT-15 colon): > 100 µM
- TGI (T-47D breast): > 100 µM
- TGI (A498 renal): > 100 µM
- TGI (IGROV1 ovarian): > 100 µM
- TGI (ACHN renal): > 100 µM
- TGI (NCI-H460 lung): > 100 µM
- TGI (MOLT-4 leukemia): > 100 µM
- TGI (SK-MEL-2 melanoma): > 100 µM
- TGI (U251 CNS): > 100 µM
- TGI (NCI/ADR-RES ovarian): > 100 µM
- TGI (CAKI-1 renal): > 100 µM
- TGI (UACC-62 melanoma): > 100 µM
- TGI (HL-60(TB) leukemia): > 100 µM
- TGI (MDA-MB-435): > 100 µM
- TGI (M14 melanoma): > 100 µM
- TGI (COLO 205 colon): > 100 µM
- TGI (OVCAR-4 ovarian): > 100 µM
- TGI (HS 578T breast): > 100 µM
- TGI (UO-31 renal): > 100 µM
- TGI (SK-MEL-5 melanoma): > 100 µM
- TGI (SK-MEL-28 melanoma): > 100 µM
- TGI (TK-10 renal): > 100 µM
- TGI (SK-OV-3 ovarian): > 100 µM
- TGI (SR leukemia): > 100 µM
- TGI (HT29 colon): > 100 µM
- TGI (SF-539 CNS): > 100 µM
- TGI (EKVX NSCLC): > 100 µM
- TGI (MDA-MB-231 breast): > 100 µM
- TGI (PC-3 prostate): > 100 µM
- TGI (LOX IMVI melanoma): > 100 µM
- TGI (MALME-3M melanoma): > 100 µM
- TGI (OVCAR-3 ovarian): > 100 µM
- TGI (NCI-H522 lung): > 100 µM
